Consider one molecule from patent US11883379B1, “9-flouro-dibenzo[B,G]indeno[1′, 2′:3,4]fluoreno-[1,2-D]oxonine-5, 11, 16,21-tetraone as an antimicrobial agent” (KING FAISAL UNIVERSITY, priority 2023, dated 2024).

SMILES strings stand for the structures.

The melting point is the temperature of the solid-liquid transition. Molecule `O=C1Oc2ccc(F)cc2-c2c(c3c4ccccc4c(=O)c3c3c2c(=O)c2ccccc23)C(=O)c2ccccc21` [9-fluoro-dibenzo[b,g]indeno[1′,2′:3,4]fluoreno-[1,2-d]oxonine-5,11,16,21-tetraone] showed a melting point of 288 to 289 °C.
